Measurements from patent publication US9341616B2, “Sweet taste receptor chimeric proteins and use thereof” (AJINOMOTO CO., INC., priority 2014, dated 2016).
Read-outs that look alike come from different tables or passages of the source. Residues, ends and D or L forms follow the SMILES beside them.

Experiments:
h-mT1R2-471/mT1R3 = h-mT1R2-471/mT1R3 (UniProt Q8TE23+Q925D8, A537S/A564V/A568V/A570T/A649T/A658V/A782V/D480N/E530V/E534N/E542M/E548N/F525Y/F665L/G696N/G701T/H484Y/H528R/I481V/I486P/I490V/I510L/I518V/I595M/I643V/I645L/I692L/I695G/K476T/K504M/K626T/K714N/L471T/L521P/L571I/L578I/L610P/L631F/L636F/L639V/L688V/L702I/L734M/L800F/M492I/M616G/M682V/M690V/M748V/N477Y/N540G/N541S/N721H/P638T/P824S/Q472E/Q474R/Q479S/Q536L/Q546K/Q555R/Q676H/R473T/R498S/R667S/S501P/S547N/S550A/S628F/S663R/S670G/S681F/S703N/S727G/S784D/S804G/T529S/T549I/T609V/T629S/T642S/T705I/T706G/T716I/V508I/V512P/V557A/V585L/V613L/V617M/V673M/V687A/V691A/V694A/V718L/V741L/V774I/V791M/Y533F/Y615F/Y671F/Y769S/Y783H); details: Table 4; genes h-mT471/mT3 (h-mT1R2-471, mT1R3); HEK293E cells
Procedure: (§1) The HEK293E cells maintained by using the DMEM/Ham's F-12 medium (Nakarai Tesque) containing 10% fetal bovine serum ([…]) and 1% Pen Strep (GIBCO) were washed with D-PBS(−) (Nakarai Tesque), and collected from the flask by using 0.25% Trypsin EDTA (GIBCO). The cells were centrifuged (1,200 rpm, 3 minutes), and after the supernatant was removed, suspended in 5% FBS DMEM/Ham's F-12 at a density of 0.75×10^7 cell/ml. This suspension (10 ml) was put into a […] (IWAKI), and culture was performed overnight (37° C., 5% CO2). On the next day, the medium was exchanged with Opti-MEM (30 ml, Invitrogen, Life Technologies), a sweet taste receptor gene mixture (Gα15-trans48LD gene, various kinds of T1R2 chimeric genes, and various kinds of T1R3 chimeric genes, 63.8 μg in total) prepared by using Opti-MEM and Lipofectamin 2000 (Invitrogen, Life Technologies) was slowly added to the cell suspension, and incubation was performed (37° C., 5% CO2) for 6 hours to attain gene transfer.
(§2) After the gene transfer, the cells were washed with D-PBS(−), then removed from the flask by using 0.25% Trypsin EDTA (GIBCO), and collected. After the cell number was counted, the cells were suspended in the 5% FBS DMEM medium (2.78 mM glucose, GIBCO) at a density of 0.5×10^6 cell/ml. This cell suspension was put into wells of D-Lysine coat 96-well plate (BD bioscience) in such a volume that the cell count is 7.0×10^4 cells/well, and the cells were cultured overnight.
(§3) After the culture, all the medium of the 96 wells were discarded. 200 μl of the staining solution for measurement of intracellular calcium ion′ Calcium Assay Kit Express (Molecular Device), diluted 80 times with an assay buffer (20 mM HEPES, 146 mM NaCl, 1 mM MgSO4, 1.39 mM glucose, 1 mM CaC12, 2.5 mM Probenecid, 0.05% bovine serum albumin) was added to each well, and the plate was left standing at 37° C. for 30 minutes and at room temperature for 45 minutes to perform staining. After the staining, 50 μl of a solution of stimulant (sweet taste substance) prepared with the assay buffer was added to each well, and the fluorescence value was measured for 120 seconds after the stimulation by using FDSSμEELL (Hamamatsu Photonics). By measuring the fluorescence value (Ex. 480 nm, Em. 540 nm) before and after the stimulation, the change of the intracellular free calcium ion concentration caused by addition of the stimulant via a sweet taste receptor was quantitatively investigated. The measurement and analysis of the fluorescence value was performed by using the software attached to FDSSμEELL (FDSS7000EX), and ΔF/F value was calculated in accordance with the following equation, and used for the evaluation. ΔF/F=(Maximum fluorescence value after stimulation−Minimum fluorescence value after stimulation)/(Fluorescence value before stimulation)
(§4) Furthermore, by using the ΔF/F values obtained when each sweet taste substance was added, the S/N ratio was calculated. Specifically, the S/N value was calculated by using the minimum value of ΔF/F obtained when each substance was added at various concentrations as noise (N) value, and the similarly obtained maximum value of ΔF/F as the signal (S) value, and used as an index for sensitivity of the measurement of the activity of each receptor. That is, a higher S/N value means a higher sensitivity for detection of an interaction of a sweet taste receptor and a test substance, which makes it easier to detect stimulation with a sweet taste substance or sweet taste-regulating substance of a lower concentration.
(§5) The sweet taste substances used as the stimulating substance are acesulfame potassium (Tokyo Kasei Kogyo), sodium saccharin (WAKO), sucralose (SIGMA), sucrose (WAKO), and neotame (SIGMA), as well as aspartame, advantame, and SC-45647 ([3-[(S)-1-phenylethyl]-2-(4-cyanophenyl)guanidino]acetic acid, which were all synthesized in-house.

h-mT1R2-481/mT1R3 = h-mT1R2-481/mT1R3 (UniProt Q8TE23+Q925D8, A537S/A564V/A568V/A570T/A649T/A658V/A782V/E530V/E534N/E542M/E548N/F525Y/F665L/G696N/G701T/H484Y/H528R/I481V/I486P/I490V/I510L/I518V/I595M/I643V/I645L/I692L/I695G/K504M/K626T/K714N/L521P/L571I/L578I/L610P/L631F/L636F/L639V/L688V/L702I/L734M/L800F/M492I/M616G/M682V/M690V/M748V/N540G/N541S/N721H/P638T/P824S/Q536L/Q546K/Q555R/Q676H/R498S/R667S/S501P/S547N/S550A/S628F/S663R/S670G/S681F/S703N/S727G/S784D/S804G/T529S/T549I/T609V/T629S/T642S/T705I/T706G/T716I/V508I/V512P/V557A/V585L/V613L/V617M/V673M/V687A/V691A/V694A/V718L/V741L/V774I/V791M/Y533F/Y615F/Y671F/Y769S/Y783H); details: genes h-mT481/mT3 (h-mT1R2-481, mT1R3), HEK293E cells
Procedure: as §1, §2, §3, §4, §5

Sequence of h-mT1R2-471/mT1R3 (Q8TE23 with tags, fused parts or gaps with the stated changes limits assumed): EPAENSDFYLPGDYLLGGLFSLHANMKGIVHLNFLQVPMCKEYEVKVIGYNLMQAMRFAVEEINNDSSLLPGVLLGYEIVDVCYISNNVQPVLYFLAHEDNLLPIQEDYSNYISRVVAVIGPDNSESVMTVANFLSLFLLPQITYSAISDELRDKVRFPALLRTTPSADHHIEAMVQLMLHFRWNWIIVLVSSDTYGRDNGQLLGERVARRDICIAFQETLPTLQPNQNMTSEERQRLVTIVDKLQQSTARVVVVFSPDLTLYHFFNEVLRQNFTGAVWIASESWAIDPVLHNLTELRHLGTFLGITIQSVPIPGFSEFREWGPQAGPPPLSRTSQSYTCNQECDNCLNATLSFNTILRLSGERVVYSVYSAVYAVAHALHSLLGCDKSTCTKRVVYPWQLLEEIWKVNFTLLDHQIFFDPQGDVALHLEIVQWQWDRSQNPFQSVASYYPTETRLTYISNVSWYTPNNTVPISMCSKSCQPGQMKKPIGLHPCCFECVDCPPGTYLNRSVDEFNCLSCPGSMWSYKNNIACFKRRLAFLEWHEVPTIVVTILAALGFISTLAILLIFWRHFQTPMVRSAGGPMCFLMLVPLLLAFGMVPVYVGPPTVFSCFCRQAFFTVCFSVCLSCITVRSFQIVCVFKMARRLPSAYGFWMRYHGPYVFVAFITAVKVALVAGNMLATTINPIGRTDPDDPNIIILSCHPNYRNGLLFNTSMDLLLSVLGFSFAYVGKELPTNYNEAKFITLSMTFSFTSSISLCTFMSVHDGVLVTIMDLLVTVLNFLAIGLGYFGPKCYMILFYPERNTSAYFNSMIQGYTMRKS
Sequence of h-mT1R2-471/mT1R3 (Q925D8 21-858, stated change not applied): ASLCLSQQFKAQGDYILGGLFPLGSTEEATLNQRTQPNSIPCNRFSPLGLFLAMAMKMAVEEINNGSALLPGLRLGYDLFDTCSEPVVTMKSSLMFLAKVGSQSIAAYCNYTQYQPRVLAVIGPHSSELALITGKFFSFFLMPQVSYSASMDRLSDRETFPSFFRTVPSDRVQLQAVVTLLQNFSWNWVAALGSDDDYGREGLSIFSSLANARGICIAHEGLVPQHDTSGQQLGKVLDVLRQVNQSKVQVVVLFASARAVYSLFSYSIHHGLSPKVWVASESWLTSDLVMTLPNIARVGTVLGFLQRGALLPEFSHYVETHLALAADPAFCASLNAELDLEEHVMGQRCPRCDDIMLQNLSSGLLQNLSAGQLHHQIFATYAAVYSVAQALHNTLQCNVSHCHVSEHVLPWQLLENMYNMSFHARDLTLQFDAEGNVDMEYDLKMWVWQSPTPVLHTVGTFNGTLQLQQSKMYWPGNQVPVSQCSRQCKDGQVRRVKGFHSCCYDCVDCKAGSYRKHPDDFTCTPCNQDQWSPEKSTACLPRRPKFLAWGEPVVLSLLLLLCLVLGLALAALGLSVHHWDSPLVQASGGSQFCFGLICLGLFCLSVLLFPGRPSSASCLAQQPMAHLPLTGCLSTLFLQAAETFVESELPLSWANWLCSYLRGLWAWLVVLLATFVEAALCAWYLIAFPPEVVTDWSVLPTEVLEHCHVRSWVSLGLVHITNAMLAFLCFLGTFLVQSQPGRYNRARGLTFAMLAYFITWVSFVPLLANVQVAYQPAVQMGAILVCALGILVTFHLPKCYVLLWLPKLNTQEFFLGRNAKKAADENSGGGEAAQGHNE
Sequence of h-mT1R2-481/mT1R3 (Q8TE23 with tags, fused parts or gaps with the stated changes limits assumed): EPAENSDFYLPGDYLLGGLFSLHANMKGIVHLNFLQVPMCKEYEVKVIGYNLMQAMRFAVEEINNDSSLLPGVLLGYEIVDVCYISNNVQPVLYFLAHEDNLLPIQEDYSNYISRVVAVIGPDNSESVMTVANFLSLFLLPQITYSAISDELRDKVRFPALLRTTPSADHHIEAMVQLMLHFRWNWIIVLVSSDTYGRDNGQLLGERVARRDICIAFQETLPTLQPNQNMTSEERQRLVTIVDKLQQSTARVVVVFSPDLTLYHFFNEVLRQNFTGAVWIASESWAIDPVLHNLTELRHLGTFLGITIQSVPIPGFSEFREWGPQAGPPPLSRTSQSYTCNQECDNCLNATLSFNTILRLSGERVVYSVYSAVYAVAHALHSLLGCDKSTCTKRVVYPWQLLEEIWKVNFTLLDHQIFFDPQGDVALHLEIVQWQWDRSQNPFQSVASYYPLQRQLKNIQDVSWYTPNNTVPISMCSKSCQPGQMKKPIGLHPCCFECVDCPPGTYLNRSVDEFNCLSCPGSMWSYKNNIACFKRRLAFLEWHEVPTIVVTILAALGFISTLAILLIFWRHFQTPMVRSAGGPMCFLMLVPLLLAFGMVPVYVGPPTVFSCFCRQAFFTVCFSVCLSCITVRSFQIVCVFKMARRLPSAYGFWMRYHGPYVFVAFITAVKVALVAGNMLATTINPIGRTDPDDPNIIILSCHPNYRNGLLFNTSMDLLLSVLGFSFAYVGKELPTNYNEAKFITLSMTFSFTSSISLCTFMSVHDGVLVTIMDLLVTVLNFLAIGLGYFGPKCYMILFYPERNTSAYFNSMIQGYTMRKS
Sequence of h-mT1R2-481/mT1R3 (Q925D8 21-858, stated change not applied): as the sequence (Q925D8 21-858, stated change not applied) above

SMILES	S/N (h-mT1R2-471/mT1R3)	S/N (h-mT1R2-481/mT1R3; Table 3)	S/N (h-mT1R2-481/mT1R3; Table 4)
COC(=O)[C@H](Cc1ccccc1)NC(=O)[C@@H](N)CC(=O)O [Aspartame, aspartame] (HELM PEPTIDE1{D.F.[CO[*:1]]}$$$$V2.0)	4.6	4.3	5.8
OC[C@H]1O[C@H](O[C@]2(CCl)O[C@H](CCl)[C@@H](O)[C@@H]2O)[C@H](O)[C@@H](O)[C@H]1Cl [Sucralose, sucralose]	4.6	5.0	5.7
O=C1NS(=O)(=O)c2ccccc21.[Na] [Saccharin Na, sodium saccharin]	3.6	3.9	4.4
COC(=O)[C@H](Cc1ccccc1)NC(=O)[C@H](CC(=O)O)NCCCc1ccc(OC)c(O)c1 [Advantame, advantame]	5.5	6.6	7.1
C[C@H](NC(=Nc1ccc(C#N)cc1)NCC(=O)O)c1ccccc1 [SC-45647, [3-[(S)-1-phenylethyl]-2-(4-cyanophenyl)guanidino]acetic acid]	4.2	5.1	5.2
OC[C@H]1O[C@@](CO)(O[C@H]2O[C@H](CO)[C@@H](O)[C@H](O)[C@H]2O)[C@@H](O)[C@@H]1O [Sucrose, sucrose]	3.5	2.8	3.9
CC1=CC(=O)NS(=O)(=O)O1 [Acesulfame K, acesulfame potassium]	3.1	3.0	3.7
COC(=O)[C@H](Cc1ccccc1)NC(=O)[C@H](CC(=O)O)NCCC(C)(C)C [Neotame, neotame]	4.4	5.4	5.4
